# Patent US20060241163A1, “Optically active (S)-hydantoin derivative” (priority 2005, published 2006)
# Experiments:
# SD-strain rats = assay: Acute toxicity test, single intravenous administration; type: in vivo; conditions: once administered intravenously, SD-strain rats 6 weeks age
# Protocol: In an acute toxicity test where (±)-5-hydroxy-1-methylhydantoin was once administered intravenously to SD-strain rats (6 weeks age), there was no dead case even when the dose was 2,000 mg/kg, and so the lethal dose of the unchanged compound was presumed to be not less than 2,000 mg/kg. In the same toxicity test however, a lethal dose of the metabolite 1 was about 150 to 300 mg/kg. […] Furthermore, it was observed that the racemate caused the decrease of general symptoms such as passivity, tactile reaction, pain sensation reaction and ipsilateral flexor reaction at a dose of 200 mg/kg.
# mice = assay: Minimum doses for expression of general symptoms after single oral administration; type: in vivo
# [1] = Pharmacokinetics in blood (unchanged compound and metabolites in plasma) in renal insufficiency model rats; type: in vivo; conditions: 100 mg/kg oral once, 23rd day from administration of adenine; compared with R-form and racemate; FIG. 1 and FIG. 2
# Protocol: After each 100 mg/kg of (S)-(−)-5-hydroxy-1-methylhydantoin, (R)-(+)-5-hydroxy-1-methylhydantoin, and racemate thereof was orally administered once to the above-mentioned model rats of renal insufficiency (on the 23rd day from administration of adenine), changes in concentration of an unchanged compound and metabolites (metabolite 1: 1-methylimidazolidintrion and metabolite 2: 5-methyloxaluric acid) in plasma were checked.
# [2] = test system: rat in which renal insufficiency was induced by adenine; assay: Suppression of creatinine increase in adenine-induced renal insufficiency model rats; type: in vivo, Wistar-strain male rats
# Description: Adenine was orally administered to Wistar-strain male rats of eight weeks age to prepare a renal insufficiency model. […] Further, a value of creatinine clearance (mL/kg/hr) decreased from 315.3±13.8 to 25.7±4.4 whereupon renal functions lowered to about one-tenth.
# From the 7th to the 17th days from administration of adenine, the test drug was orally administered to the rat in which renal insufficiency was induced by adenine. The creatinine levels in blood before and after the administration of the test drug were compared whereupon a suppressive action of the test drug to an increase of creatinine accompanied by the progress of renal insufficiency was checked. In a control group where no test drug was administered, an increase of creatinine to an extent of 4.37±0.76 mg/dL was noted while, in a group to which (S)-(−)-5-hydroxy-1-methylhydantoin (200 mg/kg/day) was administered, an increase of creatinine was suppressed to an extent of 2.72±0.55 mg/dL.
smiles,measurement,setting,value
"CN1C(=O)NC(=O)C1O (racemic) [racemate, (±)-5-hydroxy-1-methylhydantoin, reference compound]",lethal dose,SD-strain rats,"not less than 2,000 mg/kg"
same,"dose causing decrease of general symptoms (passivity, tactile reaction, pain sensation reaction, ipsilateral flexor reaction)","mice; general symptoms observation, single oral administration to mice",200 mg/kg
"CN1C(=O)NC(=O)[C@H]1O [R-form, (R)-(+)-5-hydroxy-1-methylhydantoin]",dose for expression of general symptoms as compared with the S-form,"mice; mouse, in vivo, po",one-fifth
"CN1C(=O)NC(=O)[C@@H]1O [S-form, (S)-(−)-5-hydroxy-1-methylhydantoin]",conversion to metabolites (metabolite 1 and metabolite 2) in plasma,[1],rarely converted to its metabolites
same,"dose causing decrease of general symptoms (passivity, tactile reaction, pain sensation reaction, ipsilateral flexor reaction)","mice; mouse, in vivo, po",500 mg/kg
same,increase of creatinine in blood,"[2]; 200 mg/kg/day oral, 7th to 17th days from administration of adenine, control group 4.37±0.76 mg/dL",2.72 ± 0.55 mg/dL
same,suppressive action to renal insufficiency,"[2]; adenine renal insufficiency rats, oral, compared with racemate",suppressive action to renal insufficiency the same as the racemate
"CN1C(=O)NC(=O)C1=O [metabolite 1, 1-methylimidazolidintrion]",lethal dose,SD-strain rats,150 to 300 mg/kg
